Measured values taken from article PMC8954816, “Quantitative Analysis of Daporinad (FK866) and Its In Vitro and In Vivo Metabolite Identification Using Liquid Chromatography-Quadrupole-Time-of-Flight Mass Spectrometry” (Molecules, 2022).
Like-named read-outs stand apart in the source and are kept apart here.

How the values were obtained:
[1] = Intravenous pharmacokinetic study of Daporinad in mice (plasma, LC-qTOF-MS, NCA); type: in vivo, mouse; conditions: for AUC(0-t) / Cmax / clearance / half-life / Vd: male, ICR; for AUC(0-t) / Cmax / clearance / half-life: n = 3; for Vd: n = 3, read-out: Vss
Description: The developed LC-qTOF-MS method was successfully applied to obtain the PK parameters of Daporinad in mouse plasma following IV administration at the doses of 5, 10 and 30 mg/kg. The concentrations of most PK samples were within the qualified calibration curve except some PK samples at early time point samples. Therefore, early time point PK samples were diluted appropriately with blank mouse plasma to ensure that every sample concentration was within the calibration curve range. The PK parameters were calculated with the non-compartmental analysis (NCA) using WinNonlin (version 8.0.0) and the results are summarized in Table 4.
An aliquot of 4 µL of STD or QC working solutions were spiked into 20 µL of blank mouse plasma, and 4 µL of make-up DMSO was spiked into 20 µL of the mouse PK sample to make it the same matrix condition as the STD and QC sample. Then, 100 µL of ISTD solution was added to STD, QC and the study sample. Then, the samples were vortexed for about 1 min and centrifuged at 10,000× g rpm for 5 min. After centrifugation, 75 µL of supernatant was taken and mixed with 75 µL of DW. After that, the aliquot was transferred to an LC vial for the LC-qTOF-MS analysis.
Male ICR mice (30 ± 3 g) were purchased from the Samtako biokorea co. (Pocheon, Gyeonggi, Korea) and housed in groups of 6~8 per cage and given standard rodent chow. The animals were fasted overnight with free access to water for at least 12 h before administration. Mice were distributed into three different dosing groups (n = 3 for each dosing group; 5, 10 and 30 mg/kg). The blood sampling time points were 2, 10, 30, 60, 120, 240 and 420 min after administration. The sampling blood samples were centrifuged at 12,000× g rpm for 5 min and the plasma was transferred to another tube and then stored at −20 °C until further analysis. All experiment performed on the mouse were approved by abiding the animal care protocol (no. CNU-01104) from Chungnam National University. The procedures were abided by the guidelines established by the Association for Assessment and Accreditation of Laboratory Animal Care International (AAALAC International).
Data acquisition and LC-qTOF-MS operation was conducted using Analyst® TF Version 1.6 (Sciex, Foster City, CA, USA). MultiQuant® Version 2.1.1 (Sciex, Foster City, CA, USA) was used for the peak integration for Daporinad quantification. PeakView® Version 2.2 (Sciex, Foster City, CA, USA) and MetabolitePilot™ Version 2.0.2 (Sciex, Foster City, CA, USA) were used for the structural elucidation of Daporinad metabolites. The descriptive statistics for the qualification studies were calculated with Excel 2015 (Microsoft). Pharmacokinetic parameters were calculated in a non-compartmental analysis using WinNonlin® version 8.0.0 (Certara, Princeton, NJ, USA).

[2] = Preliminary stability tests for Daporinad in mouse plasma; type: in vitro ADME; conditions: for Freeze–thaw stability, mean accuracy: 3 cycles; for Freeze–thaw stability, mean accuracy / Short-term stability, mean accuracy: n = 3; for Short-term stability, mean accuracy: 4 h
Description: Daporinad was stable in mouse plasma for […] three cycles of freeze–thawing and also stable during at least 2 weeks at −80 °C storage condition.
Three levels of QC were used for the short-term, freeze–thaw and long-term stability assessments. The short-term stability assessment was carried out at RT for 4 h, and the long-term stability samples were kept frozen at −80 °C for 2 weeks. The freeze–thaw stability was evaluated over three cycles of freezing (−80 °C) and thawing (RT). The stability test results were evaluated by confirming that the mean accuracy (%) of the nominal value which should be within ±25% acceptance criteria.

[3] = as above; type: in vitro ADME; conditions: 14 days, −20 °C, n = 3
[4] = mouse plasma, dose range 10 to 30 mg/kg

Freeze–thaw stability, mean accuracy ([2]; mouse plasma, −80 °C, High QC (1820 ng/mL)): 116%
Freeze–thaw stability, mean accuracy ([2]; mouse plasma, −80 °C, Low QC (15.0 ng/mL)): 105%
Freeze–thaw stability, mean accuracy ([2]; mouse plasma, −80 °C, Medium QC (165 ng/mL)): 117%
Short-term stability, mean accuracy ([2]; mouse plasma, RT, High QC (1820 ng/mL)): 104%
Short-term stability, mean accuracy ([2]; mouse plasma, RT, Low QC (15.0 ng/mL)): 103%
Short-term stability, mean accuracy ([2]; mouse plasma, RT, Medium QC (165 ng/mL)): 102%
Time stable in mouse plasma at room temperature ([2]; mouse plasma, RT): at least 4 h
Time stable in mouse plasma at storage condition ([2]; mouse plasma, −80 °C storage): at least 2 weeks
Freeze–thaw stability in mouse plasma ([2]; −80 °C, three cycles of freeze–thawing): stable
Long-term stability, mean accuracy ([3]; High QC (1820 ng/mL)): 91.4%
Long-term stability, mean accuracy ([3]; Low QC (15.0 ng/mL)): 111%
Long-term stability, mean accuracy ([3]; Medium QC (165 ng/mL)): 84.5%
SMILES: O=C(/C=C/c1cccnc1)NCCCCC1CCN(C(=O)c2ccccc2)CC1 [Daporinad]
AUC(0-t) ([1]; mouse plasma, 5 mg/kg): 2860 ng·h/mL
Cmax ([1]; mouse plasma, 5 mg/kg): 5480 ± 427 ng/mL
clearance ([1]; mouse plasma, 5 mg/kg): 29.3 ± 3.7 mL/min/kg
half-life ([1]; mouse plasma, 5 mg/kg): 52.9 ± 7.3 min
Vd ([1]; mouse plasma, 5 mg/kg): 0.897 ± 0.199 L/kg
AUC(0-t) ([1]; mouse plasma, 10 mg/kg): 5950 ng·h/mL
Cmax ([1]; mouse plasma, 10 mg/kg): 14900 ng/mL
clearance ([1]; mouse plasma, 10 mg/kg): 28.1 ± 2.78 mL/min/kg
half-life ([1]; mouse plasma, 10 mg/kg): 50.5 ± 4.88 min
Vd ([1]; mouse plasma, 10 mg/kg): 0.647 ± 0.0915 L/kg
AUC(0-t) ([1]; mouse plasma, 30 mg/kg): 29400 ng·h/mL
Cmax ([1]; mouse plasma, 30 mg/kg): 48100 ng/mL
clearance ([1]; mouse plasma, 30 mg/kg): 17.9 ± 5.11 mL/min/kg
half-life ([1]; mouse plasma, 30 mg/kg): 40.8 ± 0.95 min
Vd ([1]; mouse plasma, 30 mg/kg): 0.536 ± 0.11 L/kg
Dose proportionality of Cmax and AUC ([1]; mouse plasma, dose range 5 to 10 mg/kg): dose proportional
Dose proportionality of AUC [1, 4]: supra-proportional
Dose proportionality of Cmax [1, 4]: dose-proportional
Clearance classification ([1]; mouse, 5 to 30 mg/kg): low to moderate clearance
